# Experimental data taken from patent US20050147691A1, “Catalytic oxidation of peroxy salts” (priority 2002, published 2005).
# Settings: DPS 1 mM, ambient temperature
# Method: The oxidation performance of the oxidizer or oxidizer based formulations was determined by fading of the crystal violet dye solution color. The fading of the color was monitored by measuring the UV absorbance of the dye solution at 589 nm, before and after addition of oxidizer or oxidizer based formulation. The change in absorbance or fading of color of the dye solution, corresponds to the oxidation activity of the oxidizer. The greater the change in absorbance, more reactive is the oxidizer composition.
# The oxidation activity was determined by measuring the destruction of crystal violet dye color at a wavelength of 589 nm by these formulations.
# Crystal Violet Dye solution: Prepare crystal violet dye solution by dissolving 5 mg of crystal violet dye in 1000 mls of deionized water. Dilute the solution accordingly to get a sharp peak at 589 nm.
# Procedure: • 1. […] Into 1500 mls beaker add 1000 mls of crystal violet dye solution. • 3. Using Hach spectrophotometer measure initial absorbance of the dye solution at 589 nm. • 4. […] Measure the absorbance at 589 nm after 1 and 2 hours reaction time. • 6. Calculate the percent decrease in crystal violet dye absorbance at 589 nm using the formula: [formula] Where Absi=Absorbance of crystal violet dye solution at the start of the experiment […]
row,Structure (SMILES),"effect on the oxidation performance of sodium dipersulfate, in words"
1,"O.O.O.O.O.O=S(=O)([O-])[O-].[Cu+2] [copper sulfate, copper sulfate pentahydrate]",increased
2,"O.O.O.O.O.O.O.O=S(=O)([O-])[O-].[Zn+2] [zinc sulfate, zinc sulfate heptahydrate]",no effect
